We go through 3 molecules from ChEMBL document CHEMBL3862033 (J Med Chem, 2016).

A value given as a limit tells only on which side of the number the result lay.

5-hydroxytryptamine receptor 7 (Homo sapiens), sequence (P34969 whole entry): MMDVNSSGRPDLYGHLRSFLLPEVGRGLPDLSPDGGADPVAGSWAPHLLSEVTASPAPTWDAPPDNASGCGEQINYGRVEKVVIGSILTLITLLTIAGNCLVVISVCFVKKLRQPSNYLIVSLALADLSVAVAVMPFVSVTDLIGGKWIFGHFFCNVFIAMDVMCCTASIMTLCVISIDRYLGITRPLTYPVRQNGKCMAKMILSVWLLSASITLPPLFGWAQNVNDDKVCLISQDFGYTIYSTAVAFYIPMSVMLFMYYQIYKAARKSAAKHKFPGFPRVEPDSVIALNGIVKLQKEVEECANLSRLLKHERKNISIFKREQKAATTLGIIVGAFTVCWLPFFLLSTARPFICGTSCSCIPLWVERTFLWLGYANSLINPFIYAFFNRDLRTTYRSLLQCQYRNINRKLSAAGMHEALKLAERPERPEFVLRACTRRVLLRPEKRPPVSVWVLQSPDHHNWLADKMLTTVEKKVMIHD
5-hydroxytryptamine receptor 6 (Homo sapiens), sequence (P50406 whole entry): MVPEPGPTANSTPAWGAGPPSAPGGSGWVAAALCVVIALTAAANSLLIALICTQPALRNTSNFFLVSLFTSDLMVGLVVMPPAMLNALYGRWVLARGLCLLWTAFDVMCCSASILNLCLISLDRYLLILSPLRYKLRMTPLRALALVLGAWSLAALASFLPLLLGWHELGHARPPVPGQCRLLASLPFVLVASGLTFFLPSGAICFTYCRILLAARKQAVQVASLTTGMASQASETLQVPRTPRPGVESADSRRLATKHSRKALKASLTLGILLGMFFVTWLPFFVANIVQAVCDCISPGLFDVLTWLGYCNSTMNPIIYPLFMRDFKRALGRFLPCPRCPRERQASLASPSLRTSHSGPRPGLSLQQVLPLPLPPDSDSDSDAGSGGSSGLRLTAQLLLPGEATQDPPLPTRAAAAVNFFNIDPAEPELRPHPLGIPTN
5-hydroxytryptamine receptor 1E (Homo sapiens), sequence (P28566 whole entry): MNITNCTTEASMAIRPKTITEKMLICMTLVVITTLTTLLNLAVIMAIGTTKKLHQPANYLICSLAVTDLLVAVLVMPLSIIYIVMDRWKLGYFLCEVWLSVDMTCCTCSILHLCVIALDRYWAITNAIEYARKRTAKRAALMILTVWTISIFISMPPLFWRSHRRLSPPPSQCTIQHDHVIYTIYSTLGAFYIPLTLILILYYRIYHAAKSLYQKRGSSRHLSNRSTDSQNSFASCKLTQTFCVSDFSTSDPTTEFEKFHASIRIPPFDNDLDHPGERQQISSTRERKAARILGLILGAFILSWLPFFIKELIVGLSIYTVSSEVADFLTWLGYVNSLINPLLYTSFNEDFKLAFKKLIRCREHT
T3 sequence (P41595 whole entry): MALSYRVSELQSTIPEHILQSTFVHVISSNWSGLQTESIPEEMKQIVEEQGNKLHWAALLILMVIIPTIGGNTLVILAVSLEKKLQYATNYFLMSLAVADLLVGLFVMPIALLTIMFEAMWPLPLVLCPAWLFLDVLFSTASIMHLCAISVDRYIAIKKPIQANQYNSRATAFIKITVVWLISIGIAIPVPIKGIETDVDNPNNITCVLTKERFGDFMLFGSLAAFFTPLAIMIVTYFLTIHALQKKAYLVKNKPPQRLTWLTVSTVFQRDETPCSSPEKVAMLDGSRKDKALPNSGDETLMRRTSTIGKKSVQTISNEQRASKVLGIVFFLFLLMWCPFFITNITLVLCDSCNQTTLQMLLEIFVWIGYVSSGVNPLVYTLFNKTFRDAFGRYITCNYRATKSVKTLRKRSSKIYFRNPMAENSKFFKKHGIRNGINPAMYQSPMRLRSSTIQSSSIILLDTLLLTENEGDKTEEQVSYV

In the first assay the target is T1, 5-hydroxytryptamine receptor 2A (Homo sapiens, UniProt P28223). The experiment in a line: Displacement of [3H]ketanserin from human 5-HT2A receptor expressed in HEK-T cell membranes incubated for 90 mins under dark condition by microbeta scintillation counting method.
T1 sequence (P28223 whole entry): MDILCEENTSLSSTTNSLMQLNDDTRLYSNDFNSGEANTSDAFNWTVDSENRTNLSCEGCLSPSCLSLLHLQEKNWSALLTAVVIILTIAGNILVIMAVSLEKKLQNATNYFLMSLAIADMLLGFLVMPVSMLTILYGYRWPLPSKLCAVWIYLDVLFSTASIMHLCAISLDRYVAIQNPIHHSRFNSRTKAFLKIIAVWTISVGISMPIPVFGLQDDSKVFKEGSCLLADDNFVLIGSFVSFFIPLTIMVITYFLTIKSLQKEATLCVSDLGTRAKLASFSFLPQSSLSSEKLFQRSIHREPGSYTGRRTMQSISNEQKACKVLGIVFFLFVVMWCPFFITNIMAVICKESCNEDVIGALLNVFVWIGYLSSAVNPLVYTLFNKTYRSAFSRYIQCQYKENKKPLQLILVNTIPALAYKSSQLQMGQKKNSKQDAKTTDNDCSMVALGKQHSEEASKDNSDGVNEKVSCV
Conditions: not given
For orientation: In a radioligand displacement assay an active substance lowers the binding of a labelled ligand.
The term Ki denotes the dissociation constant of the complex between target and ligand, obtained from inhibition or displacement. With `CNC(=O)[C@H]1O[C@@H](n2cnc3c(N)ncnc32)[C@H](O)[C@@H]1O`, the Ki was more than 10 µM.
The same measure, in the same setting: with `Nc1nc(Cl)nc2c1ncn2[C@H]1[C@H](O)[C@H](O)[C@]2(CO)C[C@H]12` the figure was more than 10 µM; with `CNC(=O)[C@H]1O[C@@H](n2cnc3c(NCc4cccc(I)c4)ncnc32)[C@H](O)[C@@H]1O` [IB-MECA], more than 10 µM.

Another assay concerns the target 5-hydroxytryptamine receptor 7 (Homo sapiens) (UniProt P34969). The experiment in a line: Displacement of [3H]LSD from human 5-HT7A receptor expressed in HEK cell membranes at 10 uM incubated for 90 mins under dark condition by microbeta scintillation counting method relative to control. The conditions noted are these: HEK293.
What is called inhibition is how much of the control response was suppressed. For `CNC(=O)[C@H]1O[C@@H](n2cnc3c(N)ncnc32)[C@H](O)[C@@H]1O`, the inhibition was less than 50%.
Same read-out and setting: the value for `Nc1nc(Cl)nc2c1ncn2[C@H]1[C@H](O)[C@H](O)[C@]2(CO)C[C@H]12` was less than 50%; that for `CNC(=O)[C@H]1O[C@@H](n2cnc3c(NCc4cccc(I)c4)ncnc32)[C@H](O)[C@@H]1O` [IB-MECA] was less than 50%.

The target of a further assay is T2, 5-hydroxytryptamine receptor 3A (Homo sapiens) (UniProt P46098).
T2 sequence (whole entry): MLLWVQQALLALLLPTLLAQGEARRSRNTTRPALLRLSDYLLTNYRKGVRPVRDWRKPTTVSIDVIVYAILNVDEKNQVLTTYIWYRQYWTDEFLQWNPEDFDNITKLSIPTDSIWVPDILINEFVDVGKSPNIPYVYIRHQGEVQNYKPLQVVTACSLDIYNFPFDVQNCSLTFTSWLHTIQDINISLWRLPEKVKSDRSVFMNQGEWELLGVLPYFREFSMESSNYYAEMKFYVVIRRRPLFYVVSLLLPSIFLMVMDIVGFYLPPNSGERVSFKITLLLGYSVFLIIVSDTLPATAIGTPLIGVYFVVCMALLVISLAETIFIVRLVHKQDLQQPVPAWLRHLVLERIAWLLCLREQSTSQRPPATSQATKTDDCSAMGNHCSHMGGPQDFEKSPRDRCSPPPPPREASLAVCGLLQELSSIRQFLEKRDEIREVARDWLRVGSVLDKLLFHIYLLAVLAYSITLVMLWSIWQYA
The experiment in a line: Displacement of [3H]GR65630 from human 5-HT3 receptor expressed in HEK-T cell membranes at 10 uM incubated for 90 mins under dark condition by microbeta scintillation counting method relative to control.
Conditions: not given
The molecule `CNC(=O)[C@H]1O[C@@H](n2cnc3c(N)ncnc32)[C@H](O)[C@@H]1O` had an inhibition of less than 50%.
The same measure, in the same setting: with `Nc1nc(Cl)nc2c1ncn2[C@H]1[C@H](O)[C@H](O)[C@]2(CO)C[C@H]12` the figure was less than 50%; with `CNC(=O)[C@H]1O[C@@H](n2cnc3c(NCc4cccc(I)c4)ncnc32)[C@H](O)[C@@H]1O` [IB-MECA], less than 50%.

The target of the next assay is 5-hydroxytryptamine receptor 5A (Homo sapiens) (UniProt P47898). In words: Displacement of [3H]LSD from human 5-HT5A receptor expressed in Flp-In-CHO cell membranes incubated for 90 mins under dark condition by microbeta scintillation counting method relative to control. Further details: concentration or dose not given beside the values.
5-hydroxytryptamine receptor 5A (Homo sapiens), sequence (P47898 whole entry): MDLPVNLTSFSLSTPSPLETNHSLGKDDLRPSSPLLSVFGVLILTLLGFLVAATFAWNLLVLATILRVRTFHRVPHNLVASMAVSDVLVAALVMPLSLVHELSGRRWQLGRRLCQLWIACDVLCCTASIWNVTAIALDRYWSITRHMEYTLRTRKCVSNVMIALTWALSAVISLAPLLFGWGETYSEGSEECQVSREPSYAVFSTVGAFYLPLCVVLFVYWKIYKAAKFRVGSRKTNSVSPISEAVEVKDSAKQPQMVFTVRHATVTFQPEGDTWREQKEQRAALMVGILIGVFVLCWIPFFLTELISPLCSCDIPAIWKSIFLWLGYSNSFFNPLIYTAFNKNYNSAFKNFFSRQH
Conditions: not given
The molecule `CNC(=O)[C@H]1O[C@@H](n2cnc3c(N)ncnc32)[C@H](O)[C@@H]1O` showed an inhibition of less than 50%.
The same measure, in the same setting: the value for `Nc1nc(Cl)nc2c1ncn2[C@H]1[C@H](O)[C@H](O)[C@]2(CO)C[C@H]12` was less than 50%; that for `CNC(=O)[C@H]1O[C@@H](n2cnc3c(NCc4cccc(I)c4)ncnc32)[C@H](O)[C@@H]1O` [IB-MECA] was less than 50%.

The next assay addresses T3, 5-hydroxytryptamine receptor 2B (Homo sapiens, UniProt P41595). The experiment in a line: biochemical. The class given is cell-based, HEK293.
Conditions: not given
The molecule `Nc1nc(Cl)nc2c1ncn2[C@H]1[C@H](O)[C@H](O)[C@]2(CO)C[C@H]12` showed a Ki of more than 10 µM.

The target of another assay is T4, 5-hydroxytryptamine receptor 2C (Homo sapiens) (UniProt P28335).
T4 sequence (whole entry): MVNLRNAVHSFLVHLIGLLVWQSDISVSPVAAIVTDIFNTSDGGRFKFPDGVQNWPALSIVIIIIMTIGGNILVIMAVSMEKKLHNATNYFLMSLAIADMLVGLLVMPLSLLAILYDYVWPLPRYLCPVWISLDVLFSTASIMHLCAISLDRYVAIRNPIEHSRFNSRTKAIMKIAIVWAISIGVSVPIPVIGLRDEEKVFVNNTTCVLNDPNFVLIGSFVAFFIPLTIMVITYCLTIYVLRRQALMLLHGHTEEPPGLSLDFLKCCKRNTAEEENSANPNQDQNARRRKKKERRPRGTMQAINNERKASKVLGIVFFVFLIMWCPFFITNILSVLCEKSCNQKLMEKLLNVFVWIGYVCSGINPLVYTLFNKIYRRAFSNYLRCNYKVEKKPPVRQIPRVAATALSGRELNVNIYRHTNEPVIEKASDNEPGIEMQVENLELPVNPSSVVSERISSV
In words: Displacement of [3H]mesulergine from human 5-HT2CR expressed in Flp-In HEK cell membranes at 10 uM incubated for 90 mins under dark condition by microbeta scintillation counting method relative to control. Particulars: HEK293.
`CNC(=O)[C@H]1O[C@@H](n2cnc3c(N)ncnc32)[C@H](O)[C@@H]1O` returned an inhibition of less than 10%.
On to `Nc1nc(Cl)nc2c1ncn2[C@H]1[C@H](O)[C@H](O)[C@]2(CO)C[C@H]12`, for which the inhibition was less than 10%.
Still for that read-out and setting: with `CNC(=O)[C@H]1O[C@@H](n2cnc3c(NCc4cccc(I)c4)ncnc32)[C@H](O)[C@@H]1O` [IB-MECA] the figure was more than 50%.

For a further assay, the target named is T3, 5-hydroxytryptamine receptor 2B.
Test: not given
Particulars: HEK293, at 10 µM.
The molecule `CNC(=O)[C@H]1O[C@@H](n2cnc3c(N)ncnc32)[C@H](O)[C@@H]1O` displayed an inhibition of less than 10%.
The same measure, in the same setting: with `Nc1nc(Cl)nc2c1ncn2[C@H]1[C@H](O)[C@H](O)[C@]2(CO)C[C@H]12` the figure was more than 50%.
The same measure, in the same setting: with `CNC(=O)[C@H]1O[C@@H](n2cnc3c(NCc4cccc(I)c4)ncnc32)[C@H](O)[C@@H]1O` [IB-MECA] the figure was more than 50%.

In the next assay the target is 5-hydroxytryptamine receptor 1B (Homo sapiens) (UniProt P28222). The experiment in a line: Displacement of [3H]5-CT from human 5-HT1BR expressed in HEK cell membranes at 10 uM incubated for 90 mins under dark condition by microbeta scintillation counting method relative to control. Particulars: HEK293.
5-hydroxytryptamine receptor 1B (Homo sapiens), sequence (P28222 whole entry): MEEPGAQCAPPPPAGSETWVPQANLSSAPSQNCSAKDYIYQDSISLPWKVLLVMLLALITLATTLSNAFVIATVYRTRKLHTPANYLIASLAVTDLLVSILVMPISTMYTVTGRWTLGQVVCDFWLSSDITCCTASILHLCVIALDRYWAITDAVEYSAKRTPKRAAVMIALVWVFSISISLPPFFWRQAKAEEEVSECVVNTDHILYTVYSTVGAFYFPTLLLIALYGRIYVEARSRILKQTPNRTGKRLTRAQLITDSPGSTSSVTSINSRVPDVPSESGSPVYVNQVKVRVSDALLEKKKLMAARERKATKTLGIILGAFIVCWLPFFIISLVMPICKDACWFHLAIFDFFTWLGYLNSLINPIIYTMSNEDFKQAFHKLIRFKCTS
The molecule `CNC(=O)[C@H]1O[C@@H](n2cnc3c(N)ncnc32)[C@H](O)[C@@H]1O` returned an inhibition of less than 50%.
The molecule `Nc1nc(Cl)nc2c1ncn2[C@H]1[C@H](O)[C@H](O)[C@]2(CO)C[C@H]12` gave an inhibition of less than 50%.
Still for that read-out and setting: with `CNC(=O)[C@H]1O[C@@H](n2cnc3c(NCc4cccc(I)c4)ncnc32)[C@H](O)[C@@H]1O` [IB-MECA] the figure was less than 50%.

The next assay addresses T5, 5-hydroxytryptamine receptor 1A (Homo sapiens) (UniProt P08908).
T5 sequence (whole entry): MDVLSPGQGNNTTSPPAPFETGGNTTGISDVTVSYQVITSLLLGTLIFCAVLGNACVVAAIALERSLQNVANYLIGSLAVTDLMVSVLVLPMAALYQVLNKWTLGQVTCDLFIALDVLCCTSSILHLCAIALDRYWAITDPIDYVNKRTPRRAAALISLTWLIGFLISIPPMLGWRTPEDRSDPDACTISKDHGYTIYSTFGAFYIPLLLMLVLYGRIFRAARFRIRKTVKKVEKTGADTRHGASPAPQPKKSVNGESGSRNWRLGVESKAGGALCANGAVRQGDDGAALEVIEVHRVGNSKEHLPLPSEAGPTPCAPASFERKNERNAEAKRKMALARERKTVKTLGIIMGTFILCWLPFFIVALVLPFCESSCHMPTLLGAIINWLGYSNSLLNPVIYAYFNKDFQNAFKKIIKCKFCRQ
In words: Displacement of [3H]WAY100635 from human 5-HT1AR expressed in CHO cell membranes at 10 uM incubated for 90 mins under dark condition by microbeta scintillation counting method relative to control.
Conditions: not given
`CNC(=O)[C@H]1O[C@@H](n2cnc3c(N)ncnc32)[C@H](O)[C@@H]1O`: the inhibition was less than 50%.
For `Nc1nc(Cl)nc2c1ncn2[C@H]1[C@H](O)[C@H](O)[C@]2(CO)C[C@H]12`, the inhibition was less than 50%.
The same measure, in the same setting: with `CNC(=O)[C@H]1O[C@@H](n2cnc3c(NCc4cccc(I)c4)ncnc32)[C@H](O)[C@@H]1O` [IB-MECA] the figure was less than 50%.

A further assay concerns the target 5-hydroxytryptamine receptor 6 (Homo sapiens) (UniProt P50406). The experiment in a line: Displacement of [3H]LSD from human 5-HT6 receptor expressed in HEK cell membranes at 10 uM incubated for 90 mins under dark condition by microbeta scintillation counting method relative to control. The conditions noted are these: HEK293.
As to `CNC(=O)[C@H]1O[C@@H](n2cnc3c(N)ncnc32)[C@H](O)[C@@H]1O`, the inhibition is less than 50%.
On the same count and under the same terms, the value for `Nc1nc(Cl)nc2c1ncn2[C@H]1[C@H](O)[C@H](O)[C@]2(CO)C[C@H]12` was less than 50%; that for `CNC(=O)[C@H]1O[C@@H](n2cnc3c(NCc4cccc(I)c4)ncnc32)[C@H](O)[C@@H]1O` [IB-MECA] was less than 50%.

A further assay addresses 5-hydroxytryptamine receptor 1E (Homo sapiens) (UniProt P28566). The experiment in a line: Displacement of [3H]5-HT from human 5-HT1E receptor expressed in HEK cell membranes at 10 uM incubated for 90 mins under dark condition by microbeta scintillation counting method relative to control. Particulars: HEK293.
Regarding `CNC(=O)[C@H]1O[C@@H](n2cnc3c(N)ncnc32)[C@H](O)[C@@H]1O`, the inhibition was less than 50%.
On the same count and under the same terms, with `Nc1nc(Cl)nc2c1ncn2[C@H]1[C@H](O)[C@H](O)[C@]2(CO)C[C@H]12` the figure was less than 50%; with `CNC(=O)[C@H]1O[C@@H](n2cnc3c(NCc4cccc(I)c4)ncnc32)[C@H](O)[C@@H]1O` [IB-MECA], less than 50%.

For a further assay, the target named is T1, 5-hydroxytryptamine receptor 2A. In words: Displacement of [3H]ketanserin from human 5-HT2A receptor expressed in HEK-T cell membranes at 10 uM incubated for 90 mins under dark condition by microbeta scintillation counting method relative to control.
Conditions: not given
`CNC(=O)[C@H]1O[C@@H](n2cnc3c(N)ncnc32)[C@H](O)[C@@H]1O` came in with an inhibition of less than 10%.
Still for that read-out and setting: the value for `Nc1nc(Cl)nc2c1ncn2[C@H]1[C@H](O)[C@H](O)[C@]2(CO)C[C@H]12` was less than 10%.
Still for that read-out and setting: with `CNC(=O)[C@H]1O[C@@H](n2cnc3c(NCc4cccc(I)c4)ncnc32)[C@H](O)[C@@H]1O` [IB-MECA] the figure was less than 10%.

The target of another assay is 5-hydroxytryptamine receptor 4 (Homo sapiens) (UniProt Q13639). In words: Displacement of [3H]GR113808 from human 5-HT4 receptor at 10 uM incubated for 90 mins under dark condition by microbeta scintillation counting method relative to control.
5-hydroxytryptamine receptor 4 (Homo sapiens), sequence (Q13639 whole entry): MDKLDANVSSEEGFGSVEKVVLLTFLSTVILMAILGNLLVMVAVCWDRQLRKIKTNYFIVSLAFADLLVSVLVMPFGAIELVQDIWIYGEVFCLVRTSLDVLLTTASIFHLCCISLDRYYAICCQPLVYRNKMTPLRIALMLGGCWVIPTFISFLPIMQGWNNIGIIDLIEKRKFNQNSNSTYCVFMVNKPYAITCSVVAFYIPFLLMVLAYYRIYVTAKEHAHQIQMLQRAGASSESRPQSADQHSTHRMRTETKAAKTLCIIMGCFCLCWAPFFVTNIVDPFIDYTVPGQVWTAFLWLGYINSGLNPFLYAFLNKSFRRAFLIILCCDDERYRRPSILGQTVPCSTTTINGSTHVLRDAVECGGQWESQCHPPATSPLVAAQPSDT
Conditions: not given
`CNC(=O)[C@H]1O[C@@H](n2cnc3c(N)ncnc32)[C@H](O)[C@@H]1O` had an inhibition of less than 50%.
Turning to `Nc1nc(Cl)nc2c1ncn2[C@H]1[C@H](O)[C@H](O)[C@]2(CO)C[C@H]12`, the inhibition is less than 50%.
For `CNC(=O)[C@H]1O[C@@H](n2cnc3c(NCc4cccc(I)c4)ncnc32)[C@H](O)[C@@H]1O` [IB-MECA], the inhibition is less than 50%.

A further assay deals with 5-hydroxytryptamine receptor 1D (Homo sapiens) (UniProt P28221). In words: Displacement of [3H]5-CT from human 5-HT1D receptor expressed in HEK-T cell membranes at 10 uM incubated for 90 mins under dark condition by microbeta scintillation counting method relative to control.
5-hydroxytryptamine receptor 1D (Homo sapiens), sequence (P28221 whole entry): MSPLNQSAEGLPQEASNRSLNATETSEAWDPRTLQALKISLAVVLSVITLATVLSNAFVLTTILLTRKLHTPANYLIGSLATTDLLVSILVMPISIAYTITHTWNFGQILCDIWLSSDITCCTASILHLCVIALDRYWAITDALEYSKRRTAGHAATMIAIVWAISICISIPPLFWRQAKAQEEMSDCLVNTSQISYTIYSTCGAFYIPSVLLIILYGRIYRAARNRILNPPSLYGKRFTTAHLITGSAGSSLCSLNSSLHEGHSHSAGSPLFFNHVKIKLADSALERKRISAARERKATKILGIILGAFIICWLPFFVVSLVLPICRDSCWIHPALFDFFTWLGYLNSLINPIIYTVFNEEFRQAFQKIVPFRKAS
Conditions: not given
`CNC(=O)[C@H]1O[C@@H](n2cnc3c(N)ncnc32)[C@H](O)[C@@H]1O` had an inhibition of less than 50%.
The same measure, in the same setting: the value for `Nc1nc(Cl)nc2c1ncn2[C@H]1[C@H](O)[C@H](O)[C@]2(CO)C[C@H]12` was less than 50%; that for `CNC(=O)[C@H]1O[C@@H](n2cnc3c(NCc4cccc(I)c4)ncnc32)[C@H](O)[C@@H]1O` [IB-MECA] was less than 50%.
